How the values were obtained:
PP-1 [1] = system: T1, PP-1; test: PP inhibition assay, PP-1; format: biochemical; settings: for PP-1 inhibition relative to TTN: less efficient / worse than TTN; for IC50: read-out: in vitro inhibition (IC50) against PP-1
T1 construct: other: less efficient / worse than TTN
Description: (§1) IR spectra were measured on a Bruker EQUINOX 55/S FT-IR/NIR spectrophotometer (Ettlingen, DE). Optical rotations were determined on a Perkin-Elmer 241 instrument at the sodium D line (589 nm). High-resolution mass spectrometry (HRMS) analyses were acquired on an IonSpec HiRes MALDI FT mass spectrometer (Lake Forest, Calif.) for […] or on an Agilent 1100 series LC/MSD Trap SL for HRESIMS (Santa Clara, Calif.). NMR data were recorded on a Varian Unity Inova 400 or 500 MHz NMR spectrometer (Varian, Inc., Palo Alto, Calif.). ^1H and ^13C NMR chemical shifts were referenced to residual solvent signals: δH 7.26 ppm and […] for CDCl3. ^1H-^1H COSY, HMQC, HMBC, HETLOC, gHSQMBC, and gDQCOSY were performed using either standard Varian pulse sequences or literature pulse sequences (Uhrin et al., 1998; Williamson et al., 2000). High-performance liquid chromatography (HPLC) analysis was carried out on a Varian HPLC system equipped with ProStar 210 pumps and a photodiode detector. Mobile phases used were buffer A (H2O) and buffer B (CH3CN). Analytical and semipreparative HPLC columns used were Alltech Alltima C18 columns, 250×4.6 mm, 5 μm and 250×10 mm, 5 respectively. Cytotoxity assays and PP inhibition assays for TTN and related analogues were performed as previously described for compound TTM and related congeners (Ju et al., 2009). Medium components and all other chemical solvents and reagents were purchased from Fisher Scientific (Fairlawn, N.J.). Silica gel 60 RP-18 (230-400 mesh, EMD Chemical Inc., Gibbstown, N.J.) was used for standard benchtop column chromatography. Amberlite XAD-16 resin was purchased from Sigma.
(§2) Compounds 3-7 were subjected to PP inhibition and cytotoxicity assays with 1 as a control (Ju et al., 2009). Assays focused specifically on the inhibition of PP-1 and PP-2A (Table 4), while cytotoxicity assays exploited the use of selected human cancer cell lines Du145, MCF7, and HCT-115 (Table 5).

Du145, MCF7, and HCT-115 = test: cytotoxicity against selected human cancer cell lines; format: cell-based; settings: Du145, MCF7, HCT-115
Description: as §1
as §2, with “5). […]” for “5).”

PP-2A = test: PP inhibition assay, PP-2A; format: biochemical; settings: for IC50: read-out: in vitro inhibition (IC50) against PP-2A
Description: as §1, §2

[2] = in vitro cytotoxicity assay, HCT-115; format: cell-based; settings: HCT-115 cells; HCT-115 human cancer cell line
Description: as §1, with “Medium components and all other chemical solvents and reagents were purchased from Fisher Scientific (Fairlawn, N.J.). Silica gel 60 RP-18 (230-400 mesh, EMD Chemical Inc., Gibbstown, N.J.) was used for standard benchtop column chromatography. Amberlite XAD-16 resin was purchased from Sigma.” left out

[3] = in vitro cytotoxicity assay, MCF7; format: cell-based; settings: MCF7 cells; MCF7 human cancer cell line
Description: as §1, with “Medium components and all other chemical solvents and reagents were purchased from Fisher Scientific (Fairlawn, N.J.). Silica gel 60 RP-18 (230-400 mesh, EMD Chemical Inc., Gibbstown, N.J.) was used for standard benchtop column chromatography. Amberlite XAD-16 resin was purchased from Sigma.” left out

[4] = in vitro cytotoxicity assay, Du145; format: cell-based; settings: Du145 cells; Du145 human cancer cell line
Description: as §1, with “Medium components and all other chemical solvents and reagents were purchased from Fisher Scientific (Fairlawn, N.J.). Silica gel 60 RP-18 (230-400 mesh, EMD Chemical Inc., Gibbstown, N.J.) was used for standard benchtop column chromatography. Amberlite XAD-16 resin was purchased from Sigma.” left out

PP1 = settings: literature; cited from earlier work
PP2A = settings: literature; cited from earlier work
PP-1 [5] = test: PP inhibition assay, PP-1; format: biochemical; settings: PP-1 over PP-2A
Description: as §1, §2

activated T cells = settings: literature (Shim et al., 2002); cited from earlier work

For CCC(/C=C/C(=O)O)=C\CC[C@H](C)C[C@@H](C)CC[C@H](O)[C@H](C)C(=O)C[C@@H](O)[C@H](C)[C@@H](C)OC(=O)C[C@@H](O)C1=C(C)C(=O)OC1=O [TTN D-1 (4)], the “PP-1 inhibition relative to TTN” value (PP-1 [1]) was “approximately one order of magnitude”, the IC50 (PP-1 [1]) was 130 ± 20 nM and the “cytotoxicity (in words)” value (Du145, MCF7, and HCT-115) was “inactive”. The “PP-2A inhibition relative to TTN” value (PP-2A) was “about the same potency as TTN” and the IC50 (PP-2A) was 520 ± 50 nM.
With CCC(/C=C/C(=O)O)=C\C(O)C[C@H](C)C[C@@H](C)CC[C@H](O)[C@H](C)C(=O)C[C@@H](O)[C@H](C)[C@@H](C)OC(=O)C[C@@H](O)C1=C(C)C(=O)OC1=O (stereo partly drawn) [TTN D-2 (5)] the “PP-1 inhibition relative to TTN” value (PP-1 [1]) was “approximately three orders of magnitude worse”, the IC50 (PP-1 [1]) was 9800 ± 100 nM and the “cytotoxicity (in words)” value (Du145, MCF7, and HCT-115) was “inactive”. For the same compound, the “PP-2A inhibition relative to TTN” value (PP-2A) was “about two orders of magnitude worse” and the IC50 (PP-2A) was 44000 ± 100 nM.
In the case of CCC(C=CC(=O)O)=CC(O)CC(C)CC(C)CCC(O)C(C)C(=O)CC(O)C(C)C(C)OC(=O)CC(O)C1=C(C)C(=O)OC1=O [TTN D-3 (6)], the IC50 [2] is reported as 16000 ± 3000 nM, the “PP-1 inhibition relative to TTN” value (PP-1 [1]) is reported as “approximately one order of magnitude” and the IC50 (PP-1 [1]) is reported as 210 ± 30 nM. The IC50 [3] was 11000 ± 3000 nM, the IC50 [4] was 14000 ± 3000 nM and the “PP-2A inhibition relative to TTN” value (PP-2A) was “about the same potency as TTN”. For the same compound, the IC50 (PP-2A) was 800 ± 60 nM.
For CO[C@H]([C@H](O)CC(=O)[C@@H](C)[C@@H](O)CC[C@@H](C)[C@@H]1O[C@]2(CC[C@@H](C)[C@H](CC[C@H](C)C(C)=O)O2)CC[C@@H]1C)[C@H](OC(=O)C[C@@H](O)C1=C(C)C(=O)OC1=O)C(C)C [TTM, tautomycin], the IC50 (PP1) is given as 22 to 32 nM, the “preference for PP1 inhibition relative to PP2A” value (PP1) is given as “slight preference for PP1” and the IC50 (PP2A) is given as 22 to 32 nM.
In the case of “Tautomycetin [TTN (1), reference compound]”, the PP-1 selectivity (PP-1 [5]) is given as “about 27 fold”, the IC50 (PP-1 [1]) is given as 15 ± 0.0008 nM and the IC50 (PP1) is given as 1.6 nM. For the same compound, the “T cell proliferation inhibited at concentrations lower than those needed for maximal inhibition by cyclosporine A” value (activated T cells) was 100 fold, the IC50 (PP-2A) was 400 ± 40 nM and the IC50 (PP2A) was 62 nM.
For CCC(C=CC(=O)O)=CC(=O)CC(C)CC(C)CCC(O)C(C)C(=O)CC(O)C(C)C(C)OC(=O)CC(O)C1=C(C)C(=O)OC1=O [TTN D-4 (7)], the IC50 [2] was 18000 ± 3000 nM, the “PP-1 inhibition relative to TTN” value (PP-1 [1]) was “approximately one order of magnitude” and the IC50 [3] was 17000 ± 3000 nM. The IC50 [4] was 13000 ± 4000 nM, the “PP-2A inhibition relative to TTN” value (PP-2A) was “about the same potency as TTN” and the IC50 (PP-2A) was 920 ± 40 nM.
In the case of CC/C(=C\CC[C@H](C)C[C@@H](C)CC[C@H](O)[C@H](C)C(=O)C[C@@H](O)[C@H](C)[C@@H](C)OC(=O)C[C@@H](O)C1=C(C)C(=O)OC1=O)C(O)CC(=O)O (stereo partly shown) [TTN F-1 (3)], the “PP-1 inhibition relative to TTN” value (PP-1 [1]) is reported as “approximately one order of magnitude”, the IC50 (PP-1 [1]) is reported as 170 ± 10 nM and the “cytotoxicity (in words)” value (Du145, MCF7, and HCT-115) is reported as “inactive”. For the same compound, the “PP-2A inhibition relative to TTN” value (PP-2A) was “about the same potency as TTN” and the IC50 (PP-2A) was 640 ± 80 nM.
